Laboratory results reported in US20140206726A1 (priority 2011, published 2014).

Tests used:
[1] = Measurement of logP values by HPLC on reversed phase columns (EEC directive 79/831 Annex V.A8); format: physicochemical; settings: for LogP: method [a]: pH 2,7, 0.1% formic acid in water / acetonitrile, linear gradient 10% to 95% acetonitrile
Experimental: Measurement of logP values was performed according EEC directive 79/831 Annex V.A8 by HPLC (High Performance Liquid Chromatography) on reversed phase columns with the following methods:
^[a] Measurement of LC-MS was done at pH 2,7 with 0.1% formic acid in water and with acetonitrile (contains 0.1% formic acid) as eluent with a linear gradient from 10% acetonitrile to 95% acetonitrile.
Calibration was done with not branched alkan2-ones (with 3 to 16 carbon atoms) with known logP-values (measurement of logP values using retention times with linear interpolation between successive alkanones). lambda-maX-values were determined using UV-spectra from 200 nm to 400 nm and the peak values of the chromatographic signals.

Phytophthora infestans = format: in vivo; settings: tomato plants, preventive spray, 100 ppm of active ingredient, evaluated 7 days after inoculation
Plasmopara viticola = assay: Plasmopara test (grapevines) / preventive; format: in vivo; settings: grapevine plants, preventive spray, 10 ppm of active ingredient, evaluated 6 days after inoculation
Experimental: Plasmopara Test (Grapevines)/Preventive
Solvent: 24.5 parts by weight of acetone • 24.5 parts by weight of dimethylacetamide
Emulsifier: 1 part by weight of alkylaryl polyglycol ether
To produce a suitable preparation of active compound, 1 part by weight of active compound is mixed with the stated amounts of solvent and emulsifier, and the concentrate is diluted with water to the desired concentration.
To test for preventive activity, young plants are sprayed with the preparation of active compound at the stated rate of application. After the spray coating has dried on, the plants are inoculated with an aqueous spore suspension of Plasmopara viticola and then remain for 1 day in an incubation cabinet at approximately 20° C. and a relative atmospheric humidity of 100%. The plant is subsequently placed for 4 days in a greenhouse at approximately 21° C. and a relative atmospheric humidity of approximately 90%.
The plants are then misted and placed for 1 day in an incubation cabinet.
The test is evaluated 6 days after the inoculation. 0% means an efficacy which corresponds to that of the untreated control, while an efficacy of 100% means that no disease is observed.

Q: Which LogP [1] does the source give for CC1=NOC(C)(C(=O)Nc2nc(CON=C(c3ccccc3)n3nnnc3C)cs2)C1 (stereo not drawn) [Example 7] here?
A: The LogP was 2.73^[a].

Q: Which results are given for Cc1nnnn1C(=NOCc1cccc(NC(=O)C2(C)CC(c3ccccc3)=NO2)n1)c1ccccc1 (stereo not drawn) [Example 6]?
A: LogP [1]: 3.94^[a]; Eff. % (Phytophthora infestans): 95%; Eff. % (Plasmopara viticola): 85%

Q: Which results are given for Cc1nnnn1C(=NOCc1cccc(NC(=O)C2CC(c3ccccc3F)=NO2)n1)c1ccccc1 (stereo not drawn) [Example 4]?
A: LogP [1]: 3.59^[a]; Eff. % (Phytophthora infestans): 95%

Q: With CCC1=NOC(C(=O)Nc2nc(CON=C(c3ccccc3)n3nnnc3C)cs2)C1 (stereo not drawn) [Example 26] as the molecule, how does the LogP [1] read?
A: The LogP was 2.68^[a].

Q: With COc1ccc(C2=NOC(C(=O)Nc3nc(CON=C(c4ccccc4)n4nnnc4C)cs3)C2)cc1 (stereo not drawn) [Example 23] as the molecule, how does the LogP [1] read?
A: The LogP was 3.29^[a].

Q: Which LogP [1] does the source give for Cc1nnnn1C(=NOCc1csc(NC(=O)C2CC(c3ccccc3)=NO2)n1)c1ccccc1 (stereo not drawn) [Example 8] here?
A: The LogP was 3.35^[a].

Q: What about the Eff. % (Phytophthora infestans) of the same molecule?
A: Its Eff. % is 95%.

Q: With Cn1nnnc1C(=NOCc1cccc(NC(=O)C2CC(c3ccccc3)=NO2)n1)c1ccccc1 (stereo not drawn) [Example 2] as the molecule, how does the LogP [1] read?
A: Its LogP is 3.51^[a].

Q: Which results are given for Cn1nnnc1C(=NOCc1csc(NC(=O)C2CC(c3ccccc3F)=NO2)n1)c1ccccc1 (stereo not drawn) [Example 11]?
A: LogP [1]: 3.29^[a]; Eff. % (Phytophthora infestans): 95%

Q: What does the source list for Cn1nnnc1C(=NOCc1csc(NC(=O)C2(C)CC(c3ccccc3)=NO2)n1)c1ccccc1 (stereo not drawn) [Example 13]?
A: LogP [1]: 3.6^[a]; Eff. % (Phytophthora infestans): 100%; Eff. % (Plasmopara viticola): 97%

Q: With CC1=NOC(C(=O)Nc2nc(CON=C(c3ccccc3)n3nnnc3C)cs2)C1 (stereo not drawn) [Example 27] as the molecule, how does the LogP [1] read?
A: Its LogP is 2.42^[a].

Q: For Cn1nnnc1C(=NOCc1csc(NC(=O)C2CC(c3c(F)cccc3Cl)=NO2)n1)c1ccccc1 (stereo not drawn) [Example 20], which LogP [1] is on record?
A: The LogP was 3.44^[a].

Q: And the Eff. % (Phytophthora infestans)?
A: The Eff. % was 93%.

Q: Which LogP [1] does the source give for CC1=NOC(C)(C(=O)Nc2cccc(CON=C(c3ccccc3)c3nnnn3C)n2)C1 (stereo not drawn) [Example 1] here?
A: The LogP was 2.84^[a].

Q: Which LogP [1] does the source give for Cc1nnnn1C(=NOCc1csc(NC(=O)C2CC(C(C)C)=NO2)n1)c1ccccc1 (stereo not drawn) [Example 25] here?
A: Its LogP is 2.96^[a].

Q: What about the Eff. % (Phytophthora infestans) of the same molecule?
A: The Eff. % was 85%.

Q: With Cc1nnnn1C(=NOCc1csc(NC(=O)C2CC(c3ccccc3F)=NO2)n1)c1ccccc1 (stereo not drawn) [Example 12] as the molecule, how does the LogP [1] read?
A: The LogP was 3.31^[a].

Q: And the Eff. % (Phytophthora infestans)?
A: The Eff. % was 95%.

Q: With Cn1nnnc1C(=NOCc1csc(NC(=O)C2CC(c3cc(F)ccc3F)=NO2)n1)c1ccccc1 (stereo not drawn) [Example 17] as the molecule, how does the LogP [1] read?
A: The LogP was 3.39^[a].

Q: And the Eff. % (Phytophthora infestans)?
A: The Eff. % was 95%.

Q: Which LogP [1] does the source give for CC(C)C1=NOC(C(=O)Nc2nc(CON=C(c3ccccc3)c3nnnn3C)cs2)C1 (stereo not drawn) [Example 18] here?
A: Its LogP is 2.92^[a].

Q: What about the Eff. % (Phytophthora infestans) of the same molecule?
A: Its Eff. % is 93%.

Q: Which LogP [1] does the source give for Cc1nnnn1C(=NOCc1csc(NC(=O)C2CC(c3c(F)cccc3Cl)=NO2)n1)c1ccccc1 (stereo not drawn) [Example 22] here?
A: Its LogP is 3.48^[a].

Q: And the Eff. % (Phytophthora infestans)?
A: Its Eff. % is 90%.

Q: What does the source list for CC1=NOC(C)(C(=O)Nc2nc(CON=C(c3ccccc3)c3nnnn3C)cs2)C1 (stereo not drawn) [Example 9]?
A: LogP [1]: 2.69^[a]; Eff. % (Phytophthora infestans): 85%

Q: Which LogP [1] does the source give for CCC1=NOC(C(=O)Nc2nc(CON=C(c3ccccc3)c3nnnn3C)cs2)C1 (stereo not drawn) [Example 19] here?
A: The LogP was 2.64^[a].

Q: And the Eff. % (Phytophthora infestans)?
A: The Eff. % was 85%.

Q: For Cc1nnnn1C(=NOCc1csc(NC(=O)C2(C)CC(c3ccccc3)=NO2)n1)c1ccccc1 (stereo not drawn) [Example 14], which LogP [1] is on record?
A: Its LogP is 3.64^[a].

Q: What about the Eff. % (Phytophthora infestans) of the same molecule?
A: The Eff. % was 95%.

Q: What about the Eff. % (Plasmopara viticola) of the same molecule?
A: Its Eff. % is 92%.

Q: Which results are given for COc1ccc(C2=NOC(C(=O)Nc3nc(CON=C(c4ccccc4)c4nnnn4C)cs3)C2)cc1 (stereo not drawn) [Example 21]?
A: LogP [1]: 3.25^[a]; Eff. % (Phytophthora infestans): 85%

Q: Which LogP [1] does the source give for Cn1nnnc1C(=NOCc1csc(NC(=O)C2CC(c3ccccc3)=NO2)n1)c1ccccc1 (stereo not drawn) [Example 10] here?
A: Its LogP is 3.31^[a].

Q: And the Eff. % (Phytophthora infestans)?
A: Its Eff. % is 93%.

Q: What does the source list for CC1=NOC(C(=O)Nc2nc(CON=C(c3ccccc3)c3nnnn3C)cs2)C1 (stereo not drawn) [Example 16]?
A: LogP [1]: 2.35^[a]; Eff. % (Phytophthora infestans): 93%

Q: Which results are given for Cn1nnnc1/C(=N\OCc1cccc(NC(=O)C2CC(c3ccccc3F)=NO2)n1)c1ccccc1 (stereo not drawn) [Example 3, 3-(2-fluorophenyl)-N-{6-[({[(Z)-(1-methyl-1H-tetrazol-5-yl)(phenyl)methylene]amino}oxy)methyl]pyridin-2-yl}-4,5-dihydro-1,2-oxazole-5-carboxamide]?
A: chromatographic logP ([1]; reversed phase HPLC columns, pH 2.7, HCOOH method, reported in preparation example): 3.5; Eff. % (Phytophthora infestans): 93%; Eff. % (Plasmopara viticola): 74%

Q: Which LogP [1] does the source give for Cc1nnnn1C(=NOCc1csc(NC(=O)C2CC(c3cc(F)ccc3F)=NO2)n1)c1ccccc1 (stereo not drawn) [Example 24] here?
A: The LogP was 3.46^[a].

Q: And the Eff. % (Phytophthora infestans)?
A: The Eff. % was 93%.

Q: Which LogP [1] does the source give for Cc1nnnn1C(=NOCc1csc(NC(=O)C2CC(c3ccccc3Cl)=NO2)n1)c1ccccc1 (stereo not drawn) [Example 28] here?
A: Its LogP is 3.55^[a].

Q: And the Eff. % (Phytophthora infestans)?
A: The Eff. % was 90%.

Q: What does the source list for Cn1nnnc1C(=NOCc1cccc(NC(=O)C2(C)CC(c3ccccc3)=NO2)n1)c1ccccc1 (stereo not drawn) [Example 5]?
A: LogP [1]: 3.87^[a]; Eff. % (Phytophthora infestans): 89%

Q: For Cn1nnnc1C(=NOCc1csc(NC(=O)C2CC(c3ccccc3Cl)=NO2)n1)c1ccccc1 (stereo not drawn) [Example 15], which LogP [1] is on record?
A: Its LogP is 3.48^[a].

Q: What about the Eff. % (Phytophthora infestans) of the same molecule?
A: The Eff. % was 90%.
